This is an account of results in patent US9616140B2, “Fluorescent phospholipid ether compounds, compositions, and methods of use” (Cellectar, Inc., priority 2009, dated 2017).

Where only a bound is given, the exact number is not on record here.

Series [1] concerns Caki-2 (clear cell carcinoma) cells. As to the kind of experiment: Intensity of signal emitted by CLR1501, confocal microscopy. The format is cell-based. The settings on record: 5 μM CLR1501, 24 hours. As to the method: (§1) Similar experiments were performed on several other cancerous cell lines: colorectal adenocarcinoma, uterine carcinoma, pancreatic carcinoma, ovarian adenocarcinoma, glioblastoma, clear cell carcinoma, and prostate adenocarcinoma. For comparison reasons, normal fibroblast cells were incubated with CLR1501.
(§2) Briefly, cells were plated overnight in micro slides VI (Ibidi, Verona, Wis.). The next day the cells were incubated with 5 μM of CLR1501 for 24 hours at 37° C. The cells were washed with PBS before the images were taken. The images were obtained using Nikon A1R confocal microscope. The length of exposure and intensity of the laser were similar among samples. CLR1501 was obtained using Alexa Fluor 488 filters (488 nm excitation-520 nm emission wavelength).
(§3) Table 1 illustrates intensity of signal emitted by CLR1501 in cancerous cell lines versus normal cells.

Series [2] concerns NFA (normal fibroblast cells). Described as above. The settings on record: 5 μM CLR1501, 24 hours. The format is cell-based. The procedure: as §1, §2, §3
Series [3] relates to Ovcar-3 (ovarian adenocarcinoma) cells. The series is described as above. The format is cell-based. The settings on record: 5 μM CLR1501, 24 hours. As to the method: as §1, §2, §3
Series [4] concerns PC3 (prostate adenocarcinoma) cells. The description is as above. In kind it is cell-based. The note with it: 5 μM CLR1501, 24 hours. The procedure:
as §1, §2, §3

The test system of series [5] is Panc-1 (pancreatic carcinoma) cells. The description is as above. In kind it is cell-based. The note with it: 5 μM CLR1501, 24 hours. The procedure:
as §1, §2, §3

Series [6] concerns tumor cell lines (HCT-116, MES SA/DX-5, Mia Paca-2, Panc-1, Ovcar-3, U-87MG, Caki-2, PC3). The experiment in a line: Uptake of CLR1501 in cancerous cell lines versus normal cells. The format is cell-based. As to the method:
as §1, §2

In series [7] the test system is skin melanoma (A375) cells. As to the kind of experiment: Distribution of CLR1501 in cancer skin cells. In kind it is cell-based. The procedure: To study the distribution of CLR1501 in cancer skin cells versus normal skin cells, CLR1501 was introduced into skin melanoma (A375) and normal skin (704sk) cells, purchased from ATCC. Both cells were maintained at 37° C. in DMEM media supplemented with 10% FBS and 5% CO2. Before imaging, the cells were removed from flasks with 0.25% trypsin and were allowed to grow overnight on the slides (Ibidi, microslides VI flat, Catalog No: 80626). […] CRL1501 was formulated with 0.4% of Polysorbate 20, 2% of ethanol and saline. After washing thoroughly with PBS, the cells were imaged using Bio-Rad Radiance 2100 MP Rainbow with 1 second exposure time.

Series [8] concerns normal skin (704sk) cells. As to the kind of experiment: Distribution of CLR1501 in normal skin cells. In kind it is cell-based. The note with it: 7.5 μM, 24 hours. As to the method:
To study the distribution of CLR1501 in cancer skin cells versus normal skin cells, CLR1501 was introduced into skin melanoma (A375) and normal skin (704sk) cells, purchased from ATCC. Both cells were maintained at 37° C. in DMEM media supplemented with 10% FBS and 5% CO2. Before imaging, the cells were removed from flasks with 0.25% trypsin and were allowed to grow overnight on the slides (Ibidi, microslides VI flat, Catalog No: 80626). The next day, the media was gently replaced with Phosphate Buffered Saline (PBS) and the cells were incubated with 7.5 μM of CLR1501 on DMEM media for 24 hours. CRL1501 was formulated with 0.4% of Polysorbate 20, 2% of ethanol and saline. After washing thoroughly with PBS, the cells were imaged using Bio-Rad Radiance 2100 MP Rainbow with 1 second exposure time.

Series [9] concerns glioblastoma cells (U87MG). As to the kind of experiment: Incubation of glioblastoma cells with CLR1501 and co-staining. The format is cell-based. The note with it: 48 hours. As to the method: The following co-stained dyes were used: Hoechst 33342 (1 μg/mL) (nucleus; blue color), Mitotracker (25 nM) (mitochondria, red color) and Blue-White DPX (100 nM) (Endoplasmic Reticulum (ER), blue color) were diluted in PBS and added to the cells for 15 minutes. The cells were washed with PBS and imaged with Bio-Rad Radiance 2100 MP Rainbow.

Series [10] deals with NFA cells. As to the kind of experiment: Co-culture NFA/PC3, co-staining with nucleus stain and mitochondria marker. In kind it is cell-based. The note with it: NFA (normal), 5 μM, 24 hours. As to the method:
(§4) Briefly, NFA and PC3 cell lines were co-cultured overnight on micro slide VI (Ibidi, Verona, Wis.). The next day, the cells were incubated with 5 μM of CLR1501 for 24 hours at 37° C. in complete media. The next day after washing with PBS, the cells were co-stained with nucleus stain (Hoechst 33342) and mitochondria marker (Mitotracker), (Invitrogen, Carlsbad, Calif.). The cells were observed using Nikon A1R confocal microscope. CLR1501 was excited and detected using Alexa-Fluor 488 filter, while nucleus stain and mitochondria stain were excited and detected using DAPI filter and Texas-Red filter, respectively.

A further series concerns PC3 cells. Described as above. The format is cell-based. The note with it: 5 μM, 24 hours. As to the method: as §4
A further series concerns Caki-2 cells. The experiment in a line: Co-culture NFA/Caki-2, co-staining with nucleus stain and lysosome marker. In kind it is cell-based. The note with it: 5 μM, 24 hours. As to the method:
as §4, with “and Caki-2” for “and PC3”, “and lysosome” for “and mitochondria”, “marker (Lyso-tracker),” for “marker (Mitotracker),”, “488 filter” for “488 filter,”, “DAPI” for “DAPI filter”

The subject of series [11] is NFA cells. The description is as above. The format is cell-based. The settings on record: co-culture with Caki-2, 5 μM, 24 hours. As to the method: as §4, with “and Caki-2” for “and PC3”, “and lysosome” for “and mitochondria”, “marker (Lyso-tracker),” for “marker (Mitotracker),”, “488 filter” for “488 filter,”, “DAPI” for “DAPI filter”
In series [12] the test system is Panc-1 (pancreatic carcinoma) tumors. The experiment in a line: In vivo fluorescence imaging of CLR1501 distribution in Panc-1 tumor-bearing athymic nude mice. The arrangement: species or system mouse. As to the method:
Athymic nude mice (Hsd: Athymic Nude-Fox1^nu), inoculated with Panc-1 (Pancreatic carcinoma), were injected with 150 μL of 6 mg/mL CLR1501 formulated in 0.4% Polysorbate 20, 2% ethanol and saline 24 hour and 96 hours prior to imaging. The fluorescence images were obtained using a Kodak In-Vivo Multispectral System FX. The system provides multispectral tuning of excitation light which is able to separate signals from the dye and from the body autofluorescence. Mice were anesthetized by inhalation of isofluorane. The dyes were excited at 570 nm. […] The mouse was inoculated with 1×10^6 Panc-1 cells (human pancreatic carcinoma). […] CLR1501 was excited at 480 and emitted at 520 nm. The intensity was monitored at 24 and 96 hours using Kodak in vivo imaging system (Carestream Health, Woodbridge, Conn.).

Series [13] relates to Panc-1 cells (human pancreatic carcinoma). As to the kind of experiment: Retention of CLR1501 in pre-incubated Panc-1 cells inoculated into athymic nude mouse. In kind it is in vivo. The settings on record: Panc-1 cells incubated 4 hours, then inoculated. As to the method: FIG. 10 depicts tumor co-localization of CLR1501 in athymic nude mouse. […] The mouse was inoculated with 1×10^6 Panc-1 cells (human pancreatic carcinoma) which were incubated with CLR1501 or Kodak X-Sight 761 or both CLR1501 and Kodak X-Sight 761 for 4 hours. The cells were harvested and inoculated in different spots. The signals from each dye were obtained using Kodak in vivo imaging system (Carestream Health, Woodbridge, Conn.). CLR1501 was excited at 480 and emitted at 520 nm while the Kodak X-Sight was excited at 750 and emitted at 830 nm.

Series [14] deals with xenograft and spontaneous primary and metastatic human and rodent tumor models. The note with it: cited from earlier work.
Setting [15] is: injected 96 hours prior to imaging.

Turning to `C[N+](C)(C)CCOP(=O)([O-])OCCCCCCCCCCCCCCCCCCc1ccc(C2=C3C=CC=[N+]3[B-](F)(F)n3cccc32)cc1` [CLR1501, 18-[p-(4,4-difluoro-4-bora-3a,4a-diaza-s-indacene-8-yl)-phenyl]-octadecyl phosphocholine], the “Relative intensity to normal cells” value was found to be 10.11 in series [1]; 1 in series [2]; 6.2 in series [3]; 12.01 in series [4]; 9.58 in [5]. Besides, the Average grey intensity was 151.56 in series [1] (37° C.); 14.99 in [2] (37° C.); 92.86 in series [3] (37° C.); 180.04 in [4] (37° C.); 143.65 in series [5] (37° C.). Besides, the “Uptake in cancerous cell lines” value in [6] (FIGS. 2c-2i and 2k-2l, 5 μM, 24 hours) is “significant uptake”. Further, the “Penetration into the nucleus” value in [6] (the in vitro experiments overall) is reported as “does not penetrate inside of the nucleus”. For the same compound, the “Uptake by tumor cells relative to normal fibroblast cells” value in [6] (tumor cells of Table 1 vs NFA) is 6-12 times. Besides, the Cellular distribution entry is given as “internalization of CLR1501 into numerous fluorescent vesicles that are scattered throughout the cytoplasm” in [7] (7.5 μM, 24 hours) and “transported to the lysosomes where it was degraded” in series [8]. For the same compound, the “Early time uptake profile” value in series [7] (half an hour after incubation) was “signals are thin and limited at the plasma membrane”; in series [7] (one hour after incubation) it was “signals are not concentrated solely in the plasma membrane: intracellular structures are also observed”. Also, the “Site of accumulation in cells” value in series [9] is given as “mostly accumulated in cytoplasm of the cells”. Besides, the Co-localization with organelles entry in [9] (Mitotracker, Blue-White DPX) is “co-localized with mitochondria and ER”. Moreover, the Co-localization with nucleus entry in the series on NFA cells [10], with PC3 cells (PC3 (tumor)), in the series with Caki-2 cells (Caki-2 (tumor)) and in the series on NFA cells [11] (NFA (normal)) was “not co-localized with nucleus” each time. Moreover, in the series on PC3 cells (PC3), the Co-localization with mitochondria entry is listed as “co-localized with mitochondria”. Also, the values for the Co-localization with lysosome entry with Caki-2 cells (Caki-2) and in the series with NFA cells [11] (NFA) were “co-localized with lysosome” and “minimally with NFA”, respectively. Also, the “Tumor co-localization over time” value in series [12] (1 mg in 0.15 mL, monitored at 24 and 96 hours, de-skinned) is “accumulated in tumor site, while it cleared out from the rest of normal organs”. Besides, the “Distribution of fluorescence signal in vivo” value in [12] (injected 150 μL of 6 mg/mL, 24 and 96 hours prior to imaging) was “found mostly in the tumors”. Also, the “Accumulation in the tumor” value in series [12] (setting [15]) is “more pronounced”. The “Retention of the dye in other tissues” value in series [12] (setting [15]) is on record as “tremendously reduced”. In addition, in [13], the “Retention in cancer cells after inoculation” value is “continues to be retained in these cells after in vivo subcutaneous injection”.

For `C[N+](C)(C)CCOP(=O)([O-])OCCCCCCCCCCCCCCCCCCc1ccc(I)cc1` [NM404, 18-p-(iodophenyl)-octadecyl phosphocholine], in [14] (mouse models), the “Duration of selective retention in tumors” value was more than 80 days. For the same compound, in [14] (xenograft and spontaneous primary and metastatic tumor models), the “Tumor models showing selective retention” value is on record as 37 out of 37.
